According to PMC11203266, “Continuous evolution of compact protein degradation tags regulated by selective molecular glues” (Science (New York, N.Y.), 2024):

Test system: PLK1-SD40
Assay: Immunoblot, endogenous SD40-tagged PLK1 in HEK293T cells
Type: cell-based, human
Settings: 2 hours of treatment
Text: Next, we evaluated the installation of SD40 at endogenous genomic target genes in mammalian cells using twin prime editing (twin PE) ([54], [75]). We optimized prime editing parameters, including spacer position and prime editor construct ([30]), to insert SD40 at the C-terminus of PLK1 with 26% editing efficiency and 8.8% indel byproducts in HEK293T cells (Fig. 3E, fig. S13), enabling rapid isolation of a homozygous PLK1-SD40 cell line. PLK1 is an essential cell-state regulator ([76]), and complete knockdown for 24 hours is cytotoxic. […] We also used twin prime editing to install SD40 at the N-terminus of BRD4 yielding 7.7% knock-in of SD40 in K562 cells (Fig. 3E, S13) with 4.3% indel byproducts. […] For comparison, we also attempted scarless insertion of SD40 and FKBP12^F36V from the dTag system (324 base pairs) ([17]) at the N-terminus of BRD4 using Cas9 nuclease-directed HDR using two different sgRNAs and a double-strand donor DNA template. […]
HEK293T or K562 cells were plated at a density of 1.6 x 10^5 cells/well in a 24-well plate coated with poly-D-lysine (Corning) in 1 mL media (DMEM + 10% FBS for HEK293T cells and RPMI + 10% FBS for K562 cells). […] Protein concentration in clarified lysates was quantified using Pierce BCA Protein Assay Kit (Thermo Scientific) according to the manufacturer’s protocol. […]

O=C1CCC(N2C(=O)c3ccc(N4CCOCC4)cc3C2=O)C(=O)N1 (stereo not shown) [PT-179]
PLK1 knockdown (in words): robust PLK1 knockdown
